Tests used:
Conditions in all cases: 72 h
Caco-2 [1] = experiment: cell viability relative to DMSO; higher = less toxic
Calu-3 [2] = experiment: as above
HepG2 [3] = experiment: as above
U2OS [4] = experiment: as above
Vero E6 [5] = experiment: as above
Caco-2 [6] = experiment: relative viability EC50 (midpoint between 100% and the lowest measured viability); higher = less toxic
Calu-3 [7] = experiment: as above
HepG2 [8] = experiment: as above
U2OS [9] = experiment: as above
Vero E6 [10] = experiment: as above
Caco-2 [11] = experiment: drug sensitivity score (DSS) for viability; higher = more toxic; extreme values may be limits of the assay
Calu-3 [12] = experiment: as above
HepG2 [13] = experiment: as above
U2OS [14] = experiment: as above
Vero E6 [15] = experiment: as above

Compound	cell viability (Caco-2 [1]; 1 nM) [%]	cell viability (Caco-2 [1]; 10 nM) [%]	cell viability (Caco-2 [1]; 100 nM) [%]	cell viability (Caco-2 [1]; 1000 nM) [%]	cell viability (Caco-2 [1]; 10000 nM) [%]	cell viability (Calu-3 [2]; 1 nM) [%]	cell viability (Calu-3 [2]; 10 nM) [%]	cell viability (Calu-3 [2]; 100 nM) [%]	cell viability (Calu-3 [2]; 1000 nM) [%]	cell viability (Calu-3 [2]; 10000 nM) [%]	cell viability (HepG2 [3]; 1 nM) [%]	cell viability (HepG2 [3]; 10 nM) [%]	cell viability (HepG2 [3]; 100 nM) [%]	cell viability (HepG2 [3]; 1000 nM) [%]	cell viability (HepG2 [3]; 10000 nM) [%]	cell viability (U2OS [4]; 1 nM) [%]	cell viability (U2OS [4]; 10 nM) [%]	cell viability (U2OS [4]; 100 nM) [%]	cell viability (U2OS [4]; 1000 nM) [%]	cell viability (U2OS [4]; 10000 nM) [%]	cell viability (Vero E6 [5]; 1 nM) [%]	cell viability (Vero E6 [5]; 10 nM) [%]	cell viability (Vero E6 [5]; 100 nM) [%]	cell viability (Vero E6 [5]; 1000 nM) [%]	cell viability (Vero E6 [5]; 10000 nM) [%]	relative viability EC50 (Caco-2 [6]) [µM]	relative viability EC50 (Calu-3 [7]) [µM]	relative viability EC50 (HepG2 [8]) [µM]	relative viability EC50 (U2OS [9]) [µM]	relative viability EC50 (Vero E6 [10]) [µM]	drug sensitivity score (Caco-2 [11])	drug sensitivity score (Calu-3 [12])	drug sensitivity score (HepG2 [13])	drug sensitivity score (U2OS [14])	drug sensitivity score (Vero E6 [15])
C[C@]12C/C(=C/O)C(=O)C[C@@H]1CC[C@@H]1[C@@H]2CC[C@@]2(C)[C@H]1CC[C@]2(C)O [Oxymetholone]	100	87.8	102	90.4	96.1	117	97.6	97.3	102	101	101	108	96	111	96	102	97.8	99.6	97	98.1	97.4	101	106	104	96.3	> 10	> 10	> 10	> 10	> 10	0	0	0	0	0
O[C@@H](Cc1ccncc1)C(Cl)(Cl)Cl [PETCM]	99.4	95.8	103	98.7	105	98.8	89.8	114	95.3	110	101	103	95.2	99.3	97.8	98.8	93.3	99.1	93.3	99.1	94.7	97.1	96	102	98.2	> 10	> 10	> 10	> 10	> 10	0	0	0	0	0
COc1ccc(Cl)cc1NC(=O)Nc1cc(C)nc2ccccc12 [PQ-401]	93.8	97	108	97.6	77.8	106	93.4	107	94.9	100	99.1	106	92	103	80.3	98.2	98.5	100	101	86.1	96.4	95.3	92.8	96.4	90.8	> 10	> 10	> 10	> 10	> 10	1.1	0	0.4	0.1	0
O=C(Nc1ccc(Cl)cc1)Nc1cccc(-c2cccc(N3CCCC3)n2)c1 [PSNCBAM-1]	98.3	91.9	96.2	93.7	99.4	102	98.9	95	97.9	104	101	110	102	102	99.1	98.8	102	96.6	98.7	102	108	96.7	102	105	91.8	> 10	> 10	> 10	> 10	> 10	0	0	0	0	0
CC(C)N(CCCNC(=O)Nc1ccc(C(C)(C)C)cc1)C[C@H]1O[C@@H](n2cc(Br)c3c(N)ncnc32)[C@H](O)[C@@H]1O [SGC-0946]	91.2	98.7	101	103	101	96	106	93.9	101	95.2	92.1	96.6	106	104	96.6	92.3	102	99.7	112	107	94.4	95.7	93	97.6	110	> 10	> 10	> 10	> 10	> 10	0	0	0	0	0
C[Se]C[C@H](N)C(=O)O [Se-methylselenocysteine]	94.3	99.1	97.2	102	91.4	108	113	98.1	109	96.4	101	101	104	93	108	92.4	102	95.5	99.7	97.7	104	100	99.2	102	101	> 10	> 10	> 10	> 10	> 10	0	0	0	0	0
Clc1ccccc1C(c1ccccc1)(c1ccccc1)n1cccn1 [TRAM-34]	95.8	89	99	99	90.1	104	104	106	93.4	103	107	96.5	93.5	98.4	104	97.6	98.4	101	99.2	99	104	111	97.6	104	98.9	> 10	> 10	> 10	> 10	> 10	0	0	0	0	0
N#CC(c1ccccc1)(c1ccccc1)c1ccccc1Cl [TRAM-39]	94.3	93.2	90.8	96.9	92.6	93.8	93	107	106	92.9	105	102	93.7	92.7	103	101	96.5	95.7	97.3	94.3	103	97.8	97.8	95.2	98.5	> 10	> 10	> 10	> 10	> 10	0	0	0	0	0
CCOC(=O)c1ccc(-c2ccc(OC(=O)N(C)Cc3cccc(-c4ccncc4)c3)cc2)cc1 [WWL-113]	97.4	102	105	96.5	92.8	108	93.6	108	99.1	106	100	106	96.5	107	38.1	104	97.3	98.9	95.9	97.8	94.7	98.4	92.5	99.6	91.4	> 10	> 10	3.7	> 10	> 10	0	0	2.9	0	0
Cc1cc(C)nc(NS(=O)(=O)c2ccc(NC(=S)NC(=O)COc3ccc(Br)cc3Cl)cc2)n1 [ZCL-278]	97.7	102	104	92.2	98.7	98.4	94.8	103	104	107	108	98.1	100	96.4	98.4	95.6	100	93.5	97.9	93.8	93.4	97.5	101	103	95.9	> 10	> 10	> 10	> 10	> 10	0	0	0	0	0
CC(=O)N[C@@H](CS)C(=O)O [acetylcysteine]	105	87.1	98.1	101	100	101	101	93	96.2	104	99.2	103	94.9	103	104	99.1	97.2	100	95.5	102	104	106	102	103	97.8	> 10	> 10	> 10	> 10	> 10	0	0	0	0	0
COc1cc(C)c(/C=C/C(C)=C/C=C/C(C)=C/C(=O)O)c(C)c1C [acitretin]	89.3	93.2	99.3	89.4	91.4	97.5	94.8	83.9	83.5	75.3	101	96.7	98.7	106	105	100	101	94.4	93.7	92.1	103	99.6	99.6	99.3	102	> 10	> 10	> 10	> 10	> 10	0	3.8	0	0	0
Nc1cc(-c2ccncc2)c[nH]c1=O [amrinone]	96.2	97.1	92.4	91.8	95.9	94.9	95.7	93.7	93.9	109	96.2	100	104	97.8	97.3	104	98.3	105	98.9	108	95.5	96.2	86.6	100	106	> 10	> 10	> 10	> 10	> 10	0	0	0	0	0
Cc1cc2ncc(C(=O)NCC(C)(C)NCC(=O)N3CCC[C@H]3C#N)cn2n1 [anagliptin]	103	93.3	94.6	97.8	100	97.3	102	94.9	94.6	98.8	102	94.2	102	104	97.9	99.9	101	96.2	104	98.5	99.2	99.5	102	98.8	106	> 10	> 10	> 10	> 10	> 10	0	0	0	0	0

Source: the supplement of paper PMC13380429
